Article PMC11062899, “De novo development of small cyclic peptides that are orally bioavailable” (Nature Chemical Biology, 2023)
Where “and” joins values, the source holds several entries; their conditions need not be identical. Equal values may be shown once.

Tests used:
[1] = target: human α-thrombin (Homo sapiens, UniProt P00734); experiment: Protease inhibition, Ki for human α-thrombin (fluorogenic substrate Z-Gly-Gly-Arg-AMC); format: biochemical; conditions: replicates R1-R3
Summary of the method: (§1)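 Inhibition was measured as AMC fluorescence from 50 μM substrate, monitored for 30 min at 25 °C, relative to a peptide-free control. Human and rat enzymes were present at 2 nM and 3 nM final, respectively, in 50 mM Tris-HCl pH 7.4, 150 mM NaCl, 10 mM MgCl2, 1 mM CaCl2. Ki derives from fitted IC50 via Cheng–Prusoff.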

[2] = target: T1, rat α-thrombin (Rattus norvegicus, UniProt P18292); experiment: Protease inhibition, Ki for rat α-thrombin (fluorogenic substrate Z-Gly-Gly-Arg-AMC); format: biochemical; conditions: replicates R1-R3
T1 construct: rat α-thrombin (Molecular Innovations) were used at final concentrations of 2 nM and 3 nM; purchased Molecular Innovations
Summary of the method: as §1

[3] = target: T2, porcine pepsin (Sus scrofa, UniProt P00791); experiment: Peptide stability in simulated gastric fluid (SGF); format: in vitro ADME
T2 construct: 0.32 g of porcine pepsin (Sigma-Aldrich, P7125) was dissolved under gentle agitation; purchased Sigma-Aldrich P7125
Summary of the method: (§2)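 Peptide from a 1 mM DMSO stock was added to fluid pre-warmed at 37 °C. SGF was pH 1.2 NaCl with porcine pepsin (0.32 g per 100 ml), and SIF was pH 6.8 potassium phosphate with porcine pancreatin (1 g per 100 ml). Supernatant peptide was quantified by LC–MS, with residual expressed as T1/T0.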

[4] = Peptide stability in simulated intestinal fluid (SIF); format: in vitro ADME, porcine; conditions: simulated gi fluid; 8 h, 37 °C, pH 6.8; read-out: Proteolytic stability: SIF (8 h) % remaining
Summary of the method: as §2

[5] = tested on: porcine pancreatin; experiment: as above; format: in vitro ADME; conditions: after 8 h vs 0 h (TIC)
Summary of the method: as §2

[6] = Passive artificial membrane permeability (PAMPA)
[7] = Metabolic stability in rat liver microsomes (RLMs); conditions: rat, microsomes
[8] = peptide 1.33E+02 uM, slope of proteolytic substrate cleavage over time

T2 sequence (P00791 60-385): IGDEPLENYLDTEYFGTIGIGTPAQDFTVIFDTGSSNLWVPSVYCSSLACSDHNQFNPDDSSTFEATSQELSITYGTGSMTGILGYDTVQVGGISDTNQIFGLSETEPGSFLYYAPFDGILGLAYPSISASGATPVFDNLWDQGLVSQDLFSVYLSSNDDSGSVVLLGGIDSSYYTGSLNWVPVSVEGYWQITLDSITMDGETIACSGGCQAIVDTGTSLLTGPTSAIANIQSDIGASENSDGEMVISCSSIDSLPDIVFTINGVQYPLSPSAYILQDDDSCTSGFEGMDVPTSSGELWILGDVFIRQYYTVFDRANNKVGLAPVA

For O=C1CCSCc2ccc(cc2)CSCCNC(=O)[C@H](CNC(=O)c2ccc(Cl)s2)NC(=O)[C@H](Cc2ccccn2)N1 [compound 21], the “Human alpha thrombin inhibition, slope normalized to DMSO” value ([1]; peptide 1.02E-03 uM) was 103.5 and 98.1 and 102.6, the “Human alpha thrombin inhibition, slope normalized to DMSO” value ([1]; peptide 1.04E+00 uM) was 51.0 and 46.3 and 53.8 and the “Human alpha thrombin inhibition, slope normalized to DMSO” value ([1]; peptide 1.27E-04 uM) was 101.6 (2×) and 101.3. The “Human alpha thrombin inhibition, slope normalized to DMSO” value ([1]; peptide 1.30E-01 uM) was 84.8 and 85.3 and 87.8, the “Human alpha thrombin inhibition, slope normalized to DMSO” value [1, 8] was 2.9 and 4.3 and 7.1 and the “Human alpha thrombin inhibition, slope normalized to DMSO” value ([1]; peptide 1.63E-02 uM) was 94.6 and 91.7 and 97.3. For the same molecule, the “Human alpha thrombin inhibition, slope normalized to DMSO” value ([1]; peptide 1.67E+01 uM) was 6.9 and 8.0 and 8.2, the “Human alpha thrombin inhibition, slope normalized to DMSO” value ([1]; peptide 2.03E-03 uM) was 83.6 and 95.2 and 99.1 and the “Human alpha thrombin inhibition, slope normalized to DMSO” value ([1]; peptide 2.08E+00 uM) was 39.4 and 34.7 and 41.2. For the same molecule, the “Human alpha thrombin inhibition, slope normalized to DMSO” value ([1]; peptide 2.54E-04 uM) was 100.6 and 99.2 and 101.0, the “Human alpha thrombin inhibition, slope normalized to DMSO” value ([1]; peptide 2.60E-01 uM) was 69.7 and 83.0 and 22.1 and the “Human alpha thrombin inhibition, slope normalized to DMSO” value ([1]; peptide 3.18E-05 uM) was 102.2 and 99.2 and 102.0. The “Human alpha thrombin inhibition, slope normalized to DMSO” value ([1]; peptide 3.26E-02 uM) was 94.2 and 94.0 and 90.4, the “Human alpha thrombin inhibition, slope normalized to DMSO” value ([1]; peptide 3.33E+01 uM) was 5.8 (2×) and 6.2 and the “Human alpha thrombin inhibition, slope normalized to DMSO” value ([1]; peptide 4.07E-03 uM) was 90.8 and 94.4 and 95.3. The “Human alpha thrombin inhibition, slope normalized to DMSO” value ([1]; peptide 4.17E+00 uM) was 22.8 and 22.7 and 20.6, the “Human alpha thrombin inhibition, slope normalized to DMSO” value ([1]; peptide 5.09E-04 uM) was 101.7 and 100.4 and 99.5 and the “Human alpha thrombin inhibition, slope normalized to DMSO” value ([1]; peptide 5.21E-01 uM) was 67.4 and 67.9 and 63.6. For the same molecule, the “Human alpha thrombin inhibition, slope normalized to DMSO” value ([1]; peptide 6.36E-05 uM) was 101.4 and 100.0 and 102.5, the “Human alpha thrombin inhibition, slope normalized to DMSO” value ([1]; peptide 6.51E-02 uM) was 98.0 and 95.1 and 90.8 and the “Human alpha thrombin inhibition, slope normalized to DMSO” value ([1]; peptide 6.67E+01 uM) was 5.7 and 4.5 and 9.4. For the same molecule, the “Human alpha thrombin inhibition, slope normalized to DMSO” value ([1]; peptide 8.14E-03 uM) was 81.7 and 101.4 and 94.1, the “Human alpha thrombin inhibition, slope normalized to DMSO” value ([1]; peptide 8.33E+00 uM) was 13.3 and 14.1 and 15.9 and the “Rat alpha thrombin inhibition, slope normalized to DMSO” value [2, 8] was 2.7 and 0.9 and 1.3. For the same molecule, the “Rat alpha thrombin inhibition, slope normalized to DMSO” value ([2]; peptide 1.67E+01 uM) was 3.2 and 2.7 and 2.4, the “Rat alpha thrombin inhibition, slope normalized to DMSO” value ([2]; peptide 2.08E+00 uM) was 15.0 and 14.2 (2×) and the “Rat alpha thrombin inhibition, slope normalized to DMSO” value ([2]; peptide 3.33E+01 uM) was 3.0 and 2.9 and 1.6. The “Rat alpha thrombin inhibition, slope normalized to DMSO” value ([2]; peptide 4.17E+00 uM) was 8.4 and 7.9 and 15.6, the “Rat alpha thrombin inhibition, slope normalized to DMSO” value ([2]; peptide 6.67E+01 uM) was 2.7 and 2.1 and 0.8 and the “Rat alpha thrombin inhibition, slope normalized to DMSO” value ([2]; peptide 8.33E+00 uM) was 4.8 and 3.7 and 3.3. For the same molecule, the “SGF stability, Residual peptide Average” value ([3]; after 8 h vs 0 h (TIC), average of R1-R3) was 96.77, the “SGF stability, Residual peptide” value ([3]; after 8 h vs 0 h (TIC), single replicates R1-R3) was 95.02 and 96.82 and 98.46 and the remaining at 8 h ([3]; simulated gi fluid, 8 h, 37 °C, pH 1.2, read-out: Proteolytic stability: SGF (8 h) % remaining) was 97 ± 2%. The remaining at 8 h [4] was 73 ± 14%, the “SIF stability, Residual peptide Average” value ([5]; average of R1-R3) was 72.44 and the “SIF stability, Residual peptide” value ([5]; single replicates R1-R3) was 71.05 and 59.57 and 86.70. For the same molecule, the “PAMPA permeability: % permeability” value ([6]; 50 μM, 12–18 h, acceptor concentration relative to equilibrium) was 17 ± 5%, the Papp at 50 μM ([6]; PAMPA, pH 7.4) was 1.2 ×10⁻⁶ cm/s and the “Permeability% Average” value ([6]; PAMPA, average of R1-R3) was 17.0%. For the same molecule, the “Permeability% R1” value ([6]; PAMPA, replicate R1, TIC of top well sample relative to sample at theoretical equilibrium) was 13.02%, the “Permeability% R3” value ([6]; PAMPA, replicate R3, TIC of top well sample relative to sample at theoretical equilibrium) was 21.96% and the microsomal CLint ([7]; CL (ul/min/mg protein) R1, RLM CL, replicate R1) was 102 µL/min/mg. For the same molecule, the microsomal CLint ([7]; CL (ul/min/mg protein) R2, RLM CL, replicate R2) was 60.2 µL/min/mg, the microsomal CLint ([7]; CL (ul/min/mg protein) R3, RLM CL, replicate R3) was 85 µL/min/mg and the half-life ([7]; Half Life (min) R1, RLM metabolic stability, replicate R1, 0-60 min) was 13.6 min. The half-life ([7]; Half Life (min) R2, RLM metabolic stability, replicate R2, 0-60 min) was 23 min, the half-life ([7]; Half Life (min) R3, RLM metabolic stability, replicate R3, 0-60 min) was 16.3 min and the half-life ([7]; Metabolic stability: Half life T1/2 (min), RLMs, mean and SD, three measurements) was 17.6 ± 4 min. The microsomal CLint ([7]; Metabolic stability: RLM CL (ul/min/mg), RLMs, mean and SD, three measurements) was 82 ± 17 µL/min/mg.
